Source: patent US20240189287A1, “PERIPHERALLY RESTRICTED CB1 RECEPTOR BLOCKERS AND USES THEREOF” (BIONANOSIM (BNS) LTD, priority 2021, published 2024)
Like-named read-outs stand apart in the source and are kept apart here.

Key:
[1] = test system: Salmonella typhimurium (TA98, TA100)
CB1 receptor [2] = molecular target: T1, CB1 receptor (Mus musculus (Mouse), UniProt P47746); assay: CB1 receptor radioligand binding assay, [3H]CP-55,940 displacement, mouse brain membranes; settings: mouse (m) CB1 receptor; read-out: CB1R Ki (nM) (m)
Description: (§1) Radioligand binding assays: Binding affinity was determined by a radioligand binding assay. The different BB8-conjugates binding to CB1 and CB2 receptors was assessed in competition displacement assays using [^3H]CP-55.940 as the radioligand and crude membranes from mouse brain for CB1 receptor and human kidney cells for CB2 receptor.
CB1 receptor binding assay: Mouse brain membranes were used as the source material for CB1 receptors. The displacement of specifically bound tritiated CP-55.940 from these membranes using a standard filtration assay was used to determine the Ki values for the test compounds. Briefly. 20 μg of protein was incubated for 1 h at 30° C. in the presence of 0.5 nM [^3H]CP-55,940 and various concentrations (10^−5M-10^−11M) of test compound/control, final volume of 1 mL. The incubation was terminated by rapid filtration and washing, and the amount of specifically bound [^3H]CP-55,940 was determined. Briefly, membranes with bound [^3H]CP-55,940 were separated and washed from free ligand by vacuum filtration, adsorbing the membrane onto a Whatman glass microfiber filter paper ([…], Cat #1821271). Finally, the Whatman filter paper with adsorbed membranes was cut and placed in scintillation liquid (Ultima Gold) for 1 h at 25° C. followed by a β counter reading of bound [^3H]CP-55,940 radioligand. All data were in triplicates with Ki values determined using GraphPad Prism 7.02 analysis software. […] In some cases, membranes from human source were used to determine CB1 receptor binding affinity.

CB2 receptor = CB2 receptor (Homo sapiens (Human), UniProt P34972); assay: CB2 receptor radioligand binding assay, [3H]CP-55,940 displacement, human kidney membranes; settings: for Ki: read-out: hCB2R Ki
Description: as §1
CB2 receptor binding assay: Human kidney membranes were used as the source material for CB2 receptors. The displacement of specifically bound tritiated CP-55,940 from these membranes using a standard filtration assay was used to determine the Ki values for the test compounds. Briefly, 1.25 μg of protein was incubated for 1.5 h at 30° C. in the presence of 0.5 nM [^3H]CP-55,940 and various concentrations (10^−5M-10^−11M) of test compound/control, final volume of 1 mL. The incubation was terminated by rapid filtration and washing, and the amount of specifically bound [^3H]CP-55,940 was determined. Briefly, membranes with bound [^3H]CP-55,940 were separated and washed from free ligand by vacuum filtration, adsorbing the membrane onto a Whatman glass microfiber filter paper ([…], Cat #1821271). Finally, the Whatman filter paper with adsorbed membranes was cut and placed in scintillation liquid (Ultima Gold) for 1 h at 25° C. followed by a β counter reading of bound [^3H]CP-55,940 radioligand. All data were in triplicates with Ki values determined using GraphPad Prism 7.02 analysis software.

CB1 receptor [3] = molecular target: T1, CB1 receptor; assay: [35S]GTPγS binding assay for CB1 receptor, mouse brain membranes; type: biochemical; settings: nature of binding: agonist/antagonist/inverse agonist
Description: For CB1 receptor-mouse brains were dissected and P2 membranes prepared and resuspended at ˜2 μg protein/μL in 1 ml assay buffer (50 mM Tris HCl, 9 mM MgCl2, 0.2 mM EDTA, 150 mM NaCl; pH 7.4). Ligand-stimulated [^35S]GTPγS binding was assayed as described previously (Tam et al., JCI 2010). Briefly, membranes (10 μg protein) were incubated in assay buffer containing 100 μM GDP, 0.05 nM [^35S]GTPγS, test compounds at various concentrations (CP55940/Rimonabant as controls and test compounds for BB8 conjugates), and 1.4 mg/mL fatty acid-free BSA in siliconized glass tubes. Membranes with bound ligand ([^35S]GTPγS) were separated from free ligand by vacuum filtration and were analyzed using β counter as described above. Non-specific binding was determined using 10 μM GTPS (cold GTP). Basal binding was assayed in the absence of the tested compound and in the presence of GDP.

MDR1-MDCKII cells = assay: MDR1-MDCK II cell permeation assay (bi-directional permeability, P-gp efflux); type: in vitro ADME
Description: (§2) Test and reference compounds were diluted with transport buffer (HBSS with 10 mM Hepes, pH 7.4) from stock solution to a concentration of 2 μM (DMSO<1%) and applied to the apical or basolateral side of the cell monolayer. Permeation of the test compounds from A to B direction or B to A direction was determined in duplicate with/without P-gp inhibitor (GF120918, 10 μM). […] The plate was incubated for 2.5 hours in CO2 incubator at 37±1° C., with 5% CO2 at saturated humidity without shaking. In addition, the efflux ratio of each compound was also determined. Test and reference compounds were quantified by LC-MS/MS analysis based on the peak area ratio of analyte/IS.
(§3) The in vitro bi-directional permeability across MDR1-MDCKII cells including P-glycoprotein (Pgp, ABCB1) efflux in the presence and absence of a P-gp inhibitor is an indicator as to the tendency of an orally administered compound to penetrate the brain.

P-gp (MDR1, ABCB1) = assay: as above; type: in vitro ADME; settings: dog; for Papp at 2.5 h, 2 μM: A to B
Description: as §2, §3

HepG2 Cells = assay: Cell Viability Assay in HepG2 Cells at 72 h; type: cell-based, human; settings: HepG2, 72 h
Description: The liver plays a central role in transforming and clearing chemicals, and therefore is susceptible to toxicity of these agents. BNS808, BNS822 and other selected compounds were tested in the HepG2 assay using […] to evaluate cytotoxicity.

[4] = MDCK-MDR1, pH 7.4, with GF120918, 10 μM, efflux ratio in the presence of P-gp inhibitor GF120918, read-out: MDR1 B:A/A:B (+P-gp inhibitor)
[5] = MDCK-MDR1, pH 7.4, efflux ratio, without P-gp inhibitor, read-out: MDR1 B:A/A:B

T1 sequence (P47746 whole entry): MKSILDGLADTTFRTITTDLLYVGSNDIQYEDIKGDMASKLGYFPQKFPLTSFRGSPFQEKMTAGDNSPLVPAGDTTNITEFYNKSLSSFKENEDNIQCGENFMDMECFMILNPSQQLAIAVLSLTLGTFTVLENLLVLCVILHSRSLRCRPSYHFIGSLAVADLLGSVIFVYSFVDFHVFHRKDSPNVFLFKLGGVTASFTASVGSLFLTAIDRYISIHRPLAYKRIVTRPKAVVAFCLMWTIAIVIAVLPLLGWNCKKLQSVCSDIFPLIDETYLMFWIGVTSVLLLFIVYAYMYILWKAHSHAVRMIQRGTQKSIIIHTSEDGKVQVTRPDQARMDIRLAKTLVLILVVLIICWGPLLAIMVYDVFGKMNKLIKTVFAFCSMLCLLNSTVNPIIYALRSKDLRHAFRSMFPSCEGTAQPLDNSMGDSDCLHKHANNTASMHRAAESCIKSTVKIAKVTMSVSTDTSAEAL
Chain of CB2 receptor (P34972 whole entry): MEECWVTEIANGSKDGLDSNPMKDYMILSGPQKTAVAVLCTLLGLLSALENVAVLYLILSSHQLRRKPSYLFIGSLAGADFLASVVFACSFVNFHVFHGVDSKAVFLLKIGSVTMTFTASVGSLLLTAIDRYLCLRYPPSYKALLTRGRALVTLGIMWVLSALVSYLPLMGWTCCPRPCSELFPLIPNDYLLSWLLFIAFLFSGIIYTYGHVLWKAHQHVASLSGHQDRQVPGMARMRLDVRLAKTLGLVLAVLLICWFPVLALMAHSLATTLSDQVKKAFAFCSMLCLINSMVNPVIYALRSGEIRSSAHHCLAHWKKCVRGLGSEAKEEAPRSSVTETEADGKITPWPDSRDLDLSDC

Row | Ki (CB1 receptor [2]) | Ki (CB2 receptor) | mCB1R GTPγ[^35S] (activity) (CB1 receptor [3]) | SMILES | other results
1 | 18 nM | 6310 nM | Antagonist | CS(=O)(=O)N1CCC(C(=O)NC2CCCOc3c2nn(-c2ccccc2Cl)c3-c2ccc(Cl)cc2)CC1 (stereo not drawn) [BNS815, N-[2-(2-chlorophenyl)-3-(4-chlorophenyl)-5,6,7,8-tetrahydrooxepino[3,2-c]pyrazol-8-yl]-1-methylsulfonyl-piperidine-4-carboxamide] | P-gp substrate (MDR1-MDCKII cells): P-gp substrates and Yes; Rank Papp (MDR1-MDCKII cells): High; efflux ratio at 2.5 h, 2 μM (P-gp (MDR1, ABCB1); [4]): 0.63; Papp at 2.5 h, 2 μM (P-gp (MDR1, ABCB1); MDCK-MDR1, pH 7.4): 10.1 ×10⁻⁶ cm/s; IC50 (HepG2 Cells; read-out: Absolute IC50): 55.9 µM
2 | 290 nM |  | Inverse Agonist | O=C(NC1CCCOc2c1nn(-c1ccccc1Cl)c2-c1ccc(Cl)cc1)C1CCN(C(=O)c2cccnc2)CC1 (stereo not drawn) [BNS817, N-[2-(2-chlorophenyl)-3-(4-chlorophenyl)-5,6,7,8-tetrahydrooxepino[3,2-c]pyrazol-8-yl]-1-(pyridine-3-carbonyl)piperidine-4-carboxamide] | hCB2R Ki (nM) (CB2 receptor): No binding; P-gp substrate (MDR1-MDCKII cells): P-gp substrates and Yes; Rank Papp (MDR1-MDCKII cells): High; efflux ratio at 2.5 h, 2 μM (P-gp (MDR1, ABCB1); [4]): 0.64; Papp at 2.5 h, 2 μM (P-gp (MDR1, ABCB1); MDCK-MDR1, pH 7.4): 8.09 ×10⁻⁶ cm/s; efflux ratio at 2.5 h, 2 μM (P-gp (MDR1, ABCB1); [5]): 1.92
3 | 922 nM |  |  | CNCC(=O)NC1CCCOc2c1nn(-c1ccccc1Cl)c2-c1ccc(Cl)cc1 (stereo not drawn) [BNS819, N-[2-(2-chlorophenyl)-3-(4-chlorophenyl)-5,6,7,8-tetrahydrooxepino[3,2-c]pyrazol-8-yl]-2-(methylamino)acetamide] | 
4 | 877 nM |  |  | O=C(NC1CCCOc2c1nn(-c1ccccc1Cl)c2-c1ccc(Cl)cc1)[C@H]1CCCN1 (stereo partly drawn) [BNS820, (2R)—N-[2-(2-chlorophenyl)-3-(4-chlorophenyl)-5,6,7,8-tetrahydrooxepino[3,2-c]pyrazol-8-yl]pyrrolidine-2-carboxamide] | 
5 | 1400 nM |  |  | O=C(NC1CCCOc2c1nn(-c1ccccc1Cl)c2-c1ccc(Cl)cc1)[C@@H]1CCCN1 (stereo partly drawn) [BNS821, (2S)—N-[2-(2-chlorophenyl)-3-(4-chlorophenyl)-5,6,7,8-tetrahydrooxepino[3,2-c]pyrazol-8-yl]pyrrolidine-2-carboxamide] | 
6 | 56.7 nM |  | Antagonist | CC(C)(Oc1ccc(C(=O)c2ccc(Cl)cc2)cc1)C(=O)NC1CCCOc2c1nn(-c1ccccc1Cl)c2-c1ccc(Cl)cc1 (stereo not drawn) [BNS823, 2-[4-(4-chlorobenzoyl)phenoxy]-N-[2-(2-chlorophenyl)-3-(4-chlorophenyl)-5,6,7,8-tetrahydrooxepino[3,2-c]pyrazol-8-yl]-2-methyl-propanamide] | hCB2R Ki (nM) (CB2 receptor): No binding; P-gp substrate (MDR1-MDCKII cells): No; Rank Papp (MDR1-MDCKII cells): Low; efflux ratio at 2.5 h, 2 μM (P-gp (MDR1, ABCB1); [4]): > 30.9; Papp at 2.5 h, 2 μM (P-gp (MDR1, ABCB1); MDCK-MDR1, pH 7.4): < 0.003 ×10⁻⁶ cm/s; efflux ratio at 2.5 h, 2 μM (P-gp (MDR1, ABCB1); [5]): > 27.9
7 | 456 nM |  |  | CS(=O)(=O)CC(=O)N1CCC(C(=O)NC2CCCOc3c2nn(-c2ccccc2Cl)c3-c2ccc(Cl)cc2)CC1 (stereo not drawn) [BNS824, N-[2-(2-chlorophenyl)-3-(4-chlorophenyl)-5,6,7,8-tetrahydrooxepino[3,2-c]pyrazol-8-yl]-1-(2-methylsulfonylacetyl)piperidine-4-carboxamide] | 
8 | 1.6 nM | 127 nM | Antagonist | O=C(NC1CCCOc2c1nn(-c1ccccc1Cl)c2-c1ccc(Cl)cc1)C1CCN(S(=O)(=O)c2ccc(Cl)cc2)CC1 (stereo not drawn) [BNS825, N-[2-(2-chlorophenyl)-3-(4-chlorophenyl)-5,6,7,8-tetrahydrooxepino[3,2-c]pyrazol-8-yl]-1-(4-chlorophenyl)sulfonyl-piperidine-4-carboxamide] | IC50 (HepG2 Cells; Homo sapiens, read-out: Relative IC50): > 100 µM

Continued, compound first:

Row | SMILES | Ki (CB1 receptor [2]) | Ki (CB2 receptor) | mCB1R GTPγ[^35S] (activity) (CB1 receptor [3]) | other results
9 | Nc1ccc2cc3ccccc3cc2c1 [2-Aminoanthracene, reference compound] |  |  |  | AMES result (positive/negative) ([1]; TA98, S9 yes): positive; AMES result (positive/negative) ([1]; TA100, S9 yes): positive
10 | O=[N+]([O-])c1ccc2c(c1)Cc1ccccc1-2 [2-Nitroflurene, reference compound] |  |  |  | AMES result (positive/negative) ([1]; TA98, S9 no): positive
11 | O=C(NC1CCCOc2c1nn(-c1ccccc1Cl)c2-c1ccc(Cl)cc1)c1ccccn1 (stereo not drawn) [BNS810, N-[2-(2-chlorophenyl)-3-(4-chlorophenyl)-5,6,7,8-tetrahydrooxepino[3,2-c]pyrazol-8-yl]pyridine-2-carboxamide] | 64.5 nM | 988 nM | Antagonist | 
12 | O=C(NC1CCCOc2c1nn(-c1ccccc1Cl)c2-c1ccc(Cl)cc1)c1ccncn1 (stereo not drawn) [BNS811, N-[2-(2-chlorophenyl)-3-(4-chlorophenyl)-5,6,7,8-tetrahydrooxepino[3,2-c]pyrazol-8-yl]pyrimidine-4-carboxamide] | 65.6 nM | 963 nM | Antagonist | 
13 | O=C(NC1CCCOc2c1nn(-c1ccccc1Cl)c2-c1ccc(Cl)cc1)c1ccncc1 (stereo not drawn) [BNS812, N-[2-(2-chlorophenyl)-3-(4-chlorophenyl)-5,6,7,8-tetrahydrooxepino[3,2-c]pyrazol-8-yl]pyridine-4-carboxamide] | 16.3 nM | 1300 nM | Antagonist | 
14 | CNC(=O)NC1CCCOc2c1nn(-c1ccccc1Cl)c2-c1ccc(Cl)cc1 (stereo not drawn) [BNS813, 1-[2-(2-chlorophenyl)-3-(4-chlorophenyl)-5,6,7,8-tetrahydrooxepino[3,2-c]pyrazol-8-yl]-3-methyl-urea] | 1130 nM |  |  | 
15 | CCOC(=O)N1CCC(C(=O)NC2CCCOc3c2nn(-c2ccccc2Cl)c3-c2ccc(Cl)cc2)CC1 (stereo not drawn) [BNS816, Ethyl-4-((2-(2-chlorophenyl)-3-(4-chlorophenyl)-5,6,7,8-tetrahydro-2H-oxepino[3,2-c]pyrazol-8-yl)carbamoyl)piperidine-1-carboxylate] | 8.93 nM | 1530 nM | Inverse Agonist | P-gp substrate (MDR1-MDCKII cells): No; Rank Papp (MDR1-MDCKII cells): High; MDR1 B:A/A:B (MDR1-MDCKII cells; efflux ratio, without P-gp inhibitor): 0.77; efflux ratio at 2.5 h, 2 μM (P-gp (MDR1, ABCB1); [4]): 0.61; Papp at 2.5 h, 2 μM (P-gp (MDR1, ABCB1); MDCK-MDR1, pH 7.4): 6.99 ×10⁻⁶ cm/s
16 | CN[C@@H]1C[C@H]2O[C@@](C)([C@@H]1OC)n1c3ccccc3c3c4c(c5c6ccccc6n2c5c31)C(=O)NC4 [Staurosporine, reference compound] |  |  |  | IC50 (HepG2 Cells; read-out: Relative IC50): 0.06 µM
